Results published in US7462600B2, “Macrolides” (Pfizer Inc, priority 2004, dated 2008).
Converted amounts (≈) assume the structure as drawn. Read-outs that look alike come from different tables or passages of the source.

What was measured:
Assay type in all cases: cell-based
[1] = system: Streptococcus pyogenes 1079; assay: MIC, microtiter broth dilution (NCCLS M100-S14), S. pyogenes 1079 (ermB)
Description: (§1) The assay described herein includes a panel of bacterial strains assembled to include a variety of target pathogenic species, including representatives of macrolide resistance mechanisms that have been characterized. In many cases, both the macrolide-susceptible parent strain and the macrolide-resistant strain derived from it are available to provide a more accurate assessment of the compound's ability to circumvent the resistance mechanism. The assay is performed in microtiter trays and interpreted according to Performance Standards for Antimicrobial Susceptibility Testing; 14th Informational Supplement (M100-S14), published by The National Committee for Clinical Laboratory Standards (NCCLS) guidelines; the MIC is used to compare strains. Compounds are initially dissolved in DMSO as 40 mg/ml stock solutions.

[2] = system: Streptococcus pneumoniae 1016; assay: MIC, microtiter broth dilution (NCCLS M100-S14), S. pneumoniae 1016 (susceptible)
Description: as §1

[3] = system: Streptococcus pneumoniae 1095; conditions: microtiter broth dilution
Description: as §1

[4] = system: Streptococcus pneumoniae 1175; conditions: microtiter broth dilution
Description: as §1

[5] = system: Haemophilus influenzae 1218; assay: MIC, microtiter broth dilution (NCCLS M100-S14), H. influenzae 1218 (susceptible)
Description: as §1

Row | Compound | MIC S. pyogenes 1079 ([1]; S. pyogenes 1079 (ermB)) [µg/mL] | MIC S. pneumo. 1016 ([2]; S. pneumoniae 1016 (susceptible)) [µg/mL] | MIC S. pneumo. 1095 ([3]; S. pneumoniae 1095 (ermB)) [µg/mL] | MIC S. pneumo. 1175 ([4]; S. pneumoniae 1175 (mefA)) [µg/mL] | MIC H. influenzae 1218 ([5]; H. influenzae 1218 (susceptible)) [µg/mL] | MIC S. pyogenes 1079 ([1]; Streptococcus pyogenes 1079) [µg/mL] | MIC S. pneumo. 1016 ([2]; Streptococcus pneumoniae 1016) [µg/mL] | MIC S. pneumo. 1095 ([3]; Streptococcus pneumoniae 1095) [µg/mL] | MIC S. pneumo. 1175 ([4]; Streptococcus pneumoniae 1175) [µg/mL] | MIC H. influenzae 1218 ([5]; Haemophilus influenzae 1218) [µg/mL]
1 | 3-descladinosyl-11,12-dideoxy-6-O-methyl-3-oxo-12,11-(oxycarbonyl-(1-((1H-benzo[d]imidazol-4-yl)-methyl)-(R)-pyrrolidin-3-yl)-imino)-erythromycin A [Example 9.06] | 4 | <0.06 | <0.06 | <0.06 | 0.25 |  |  |  |  | 
2 | 3-descladinosyl-11,12-dideoxy-6-O-methyl-3-oxo-12,11-(oxycarbonyl-(1-((isoquinolin-4-yl)-methyl)-azetidin-3-yl)-imino)-erythromycin A [Example 1.30] |  |  |  |  |  | 4 | <0.06 | <0.06 | <0.06 | 1
3 | 3-descladinosyl-11,12-dideoxy-6-O-methyl-3-oxo-12,11-(oxycarbonyl-(1-(quinoline-6-sulfonyl)-azetidin-3-yl)-imino)-erythromycin A [Example 3.89] |  |  |  |  |  | 8 | <0.06 | <0.06 | <0.06 | 1
4 | CCC(c1ccnc2ccccc12)N1CC(N2C(=O)OC3(C)C(CC)OC(=O)C(C)C(=O)C(C)C(OC4OC(C)CC(N(C)C)C4O)C(C)(OC)CC(C)C(=O)C(C)C23)C1 (mixture of isomers) [Example 1.61, 3-descladinosyl-11,12-dideoxy-6-O-methyl-3-oxo-12,11-(oxycarbonyl-(1-(1-(quinolin-4-yl)-propyl)-azetidin-3-yl)-imino)-erythromycin A] |  |  |  |  |  | 8 | <0.06 | <0.06 | 0.25 | 4
5 | CCC1OC(=O)C(C)C(=O)C(C)C(OC2OC(C)CC(N(C)C)C2O)C(C)(OC)CC(C)C(=O)C(C)C2N(C3CN(C(c4ccccc4)c4cccnc4)C3)C(=O)OC12C (single isomer, unassigned) [Example 1.66, phenyl-(pyridin-3-yl)methyl (*)] |  |  |  |  |  | 64 (≈ 76.6 µM) | <0.06 | 0.5 (≈ 0.599 µM) | <0.06 | 2 (≈ 2.4 µM)
6 | CCC1OC(=O)C(C)C(=O)C(C)C(OC2OC(C)CC(N(C)C)C2O)C(C)(OC)CC(C)C(=O)C(C)C2N(C3CN(C(c4ccccc4)c4cccnc4)C3)C(=O)OC12C (single isomer, unassigned) [Example 1.67, phenyl-(pyridin-3-yl)methyl (*)] |  |  |  |  |  | 16 (≈ 19.2 µM) | <0.06 | <0.06 | <0.06 | 0.5 (≈ 0.599 µM)
7 | CCC1OC(=O)C(C)C(=O)C(C)C(OC2OC(C)CC(N(C)C)C2O)C(C)(OC)CC(C)C(=O)C(C)C2N(C3CN(C(c4ccccc4)c4ccncc4)C3)C(=O)OC12C (single isomer, unassigned) [Example 1.68, phenyl-(pyridin-4-yl)methyl (*)] |  |  |  |  |  | 32 (≈ 38.3 µM) | <0.06 | 4 (≈ 4.79 µM) | <0.06 | 4 (≈ 4.79 µM)
8 | CCC1OC(=O)C(C)C(=O)C(C)C(OC2OC(C)CC(N(C)C)C2O)C(C)(OC)CC(C)C(=O)C(C)C2N(CC3CN(C(=O)c4cc(F)ccc4F)C3)C(=O)OC12C (stereo not drawn) [4.02] |  |  |  |  |  | 100 (≈ 122 µM) | 0.01 (≈ 0.0122 µM) | 0.5 (≈ 0.608 µM) | 0.5 (≈ 0.608 µM) | 3.12 (≈ 3.8 µM)
9 | CCC1OC(=O)C(C)C(=O)C(C)C(OC2OC(C)CC(N(C)C)C2O)C(C)(OC)CC(C)C(=O)C(C)C2N(CC3CN(C(=O)c4cccnc4)C3)C(=O)OC12C (stereo not drawn) [4.03] |  |  |  |  |  | >100.00 | 0.02 (≈ 0.0254 µM) | 0.39 (≈ 0.496 µM) | 0.78 (≈ 0.991 µM) | 1.56 (≈ 1.98 µM)
10 | CCC1OC(=O)C(C)C(=O)C(C)C(OC2OC(C)CC(N(C)C)C2O)C(C)(OC)CC(C)C(=O)C(C)C2N(CC3CN(Cc4cccnc4)C3)C(=O)OC12C (stereo not drawn) [4.04] |  |  |  |  |  | >64.00 | <0.06 | 16 (≈ 20.7 µM) | 0.25 (≈ 0.323 µM) | 0.5 (≈ 0.647 µM)
11 | CCC1OC(=O)C(C)C(=O)C(C)C(OC2OC(C)CC(N(C)C)C2O)C(C)(OC)CC(C)C(=O)C(C)C2N(CC3CN(C(=O)c4ccncc4)C3)C(=O)OC12C (stereo not drawn) [4.05] |  |  |  |  |  | >64.00 | 0.02 (≈ 0.0254 µM) | 2 (≈ 2.54 µM) | 1 (≈ 1.27 µM) | 4 (≈ 5.08 µM)
12 | CCC1OC(=O)C(C)C(=O)C(C)C(OC2OC(C)CC(N(C)C)C2O)C(C)(OC)CC(C)C(=O)C(C)C2N(CC3CN(C(=O)c4cccc(C#N)c4)C3)C(=O)OC12C (stereo not drawn) [4.06] |  |  |  |  |  | >100.00 | 0.02 (≈ 0.0247 µM) | 12.5 (≈ 15.4 µM) | 0.39 (≈ 0.481 µM) | 3.12 (≈ 3.85 µM)
13 | CCC1OC(=O)C(C)C(=O)C(C)C(OC2OC(C)CC(N(C)C)C2O)C(C)(OC)CC(C)C(=O)C(C)C2N(CC3CN(S(=O)(=O)c4cccc(C#N)c4)C3)C(=O)OC12C (stereo not drawn) [4.07] |  |  |  |  |  | >64.00 | <0.06 | 24 (≈ 28.3 µM) | 0.19 (≈ 0.224 µM) | 1 (≈ 1.18 µM)
14 | CCC1OC(=O)C(C)C(=O)C(C)C(OC2OC(C)CC(N(C)C)C2O)C(C)(OC)CC(C)C(=O)C(C)C2N(CC3CN(Cc4cccc(C#N)c4)C3)C(=O)OC12C (stereo not drawn) [4.08] |  |  |  |  |  | >64.00 | <0.06 | 32 (≈ 40.2 µM) | <0.06 | 0.12 (≈ 0.151 µM)
15 | CCC1OC(=O)C(C)C(=O)C(C)C(OC2OC(C)CC(N(C)C)C2O)C(C)(OC)CC(C)C(=O)C(C)C2N(CC3CN(Cc4ccn[nH]4)C3)C(=O)OC12C (stereo not drawn) [4.09] |  |  |  |  |  | >64.00 | <0.06 | 32 (≈ 42 µM) | 0.5 (≈ 0.656 µM) | 0.12 (≈ 0.157 µM)
16 | CCC1OC(=O)C(C)C(=O)C(C)C(OC2OC(C)CC(N(C)C)C2O)C(C)(OC)CC(C)C(=O)C(C)C2N(CC3CN(Cc4cnc5ccccc5c4)C3)C(=O)OC12C (stereo not drawn) [4.10] |  |  |  |  |  | 16 (≈ 19.4 µM) | <0.06 | 1 (≈ 1.22 µM) | <0.06 | <0.06
17 | CCC1OC(=O)C(C)C(=O)C(C)C(OC2OC(C)CC(N(C)C)C2O)C(C)(OC)CC(C)C(=O)C(C)C2N(CC3CN(Cc4c[nH]c5ccccc45)C3)C(=O)OC12C (stereo not drawn) [4.11] |  |  |  |  |  | 64 (≈ 78.9 µM) | <0.06 | 4 (≈ 4.93 µM) | 2 (≈ 2.47 µM) | 1 (≈ 1.23 µM)
18 | CCC1OC(=O)C(C)C(=O)C(C)C(OC2OC(C)CC(N(C)C)C2O)C(C)(OC)CC(C)C(=O)C(C)C2N(CC3CN(Cc4cnc5ccccc5n4)C3)C(=O)OC12C (stereo not drawn) [4.12] |  |  |  |  |  | 64 (≈ 77.7 µM) | <0.06 | 8 (≈ 9.71 µM) | 0.12 (≈ 0.146 µM) | 1 (≈ 1.21 µM)
19 | CCC1OC(=O)C(C)C(=O)C(C)C(OC2OC(C)CC(N(C)C)C2O)C(C)(OC)CC(C)C(=O)C(C)C2N(C3CN(Cc4cccc(-n5ccnn5)c4)C3)C(=O)OC12C (stereo not drawn) [Example 1.56, 3-([1,2,3]triazol-1-yl)benzyl] |  |  |  |  |  | >64.00 |  | <0.06 | <0.06 | 1 (≈ 1.21 µM)
20 | CCC1OC(=O)C(C)C(=O)C(C)C(OC2OC(C)CC(N(C)C)C2O)C(C)(OC)CC(C)C(=O)C(C)C2N(C3CN(Cc4ccc(-n5ccnc5)cc4)C3)C(=O)OC12C (stereo not drawn) [Example 1.57, 4-(imidazol-1-yl)benzyl] |  |  |  |  |  | 64 (≈ 77.7 µM) |  | <0.06 | <0.06 | 1 (≈ 1.21 µM)
21 | CCC1OC(=O)C(C)C(=O)C(C)C(OC2OC(C)CC(N(C)C)C2O)C(C)(OC)CC(C)C(=O)C(C)C2N(C3CN(Cc4ccccc4OC(F)(F)F)C3)C(=O)OC12C (stereo not drawn) [Example 1.88, 3-descladinosyl-11,12-dideoxy-6-O-methyl-3-oxo-12,11-(oxycarbonyl-(1-(2-(trifluoromethoxy)benzene-1-methyl)-azetidin-3-yl)-imino)-erythromycin A] |  |  |  |  |  | 8 (≈ 9.5 µM) | <0.063 |  |  | 0.5 (≈ 0.594 µM)
22 | CCC1OC(=O)C(C)C(=O)C(C)C(OC2OC(C)CC(N(C)C)C2O)C(C)(OC)CC(C)C(=O)C(C)C2N(C3CN(S(=O)(=O)c4c(Cl)nc5sccn45)C3)C(=O)OC12C (stereo not drawn) [Example 3.97, 3-descladinosyl-11,12-dideoxy-6-O-methyl-3-oxo-12,11-(oxycarbonyl-(1-(6-chloroimidazo[2,1-b]thiazole-5-sulfonyl)-azetidin-3-yl)-imino)-erythromycin A] |  |  |  |  |  | 1 (≈ 1.13 µM) |  | 0.25 (≈ 0.281 µM) | <0.063 | 0.125 (≈ 0.141 µM)
